The values below are quoted from earlier work in patent US20220409609A1, “INJECTABLE FORMULATION OF HYDROXYCHLOROQUINE” (Luckwel Pharmaceuticals Inc., priority 2021, published 2022).

For data set [1] the following is noted: water at 25° C.

Structures can show the parent of a compound that is named as a salt.

Turning to `CCN(CCO)CCCC(C)Nc1ccnc2cc(Cl)ccc12` (racemic) [Hydroxychloroquine sulfate, 2-[[4-[(7-Chloro-4-quinolyl)amino]pentyl]ethylamino] ethanol sulfate (1:1)], the “time at which hydroxychloroquine concentrations peak after dosing” value is 3 to 4 h. Further, in data set [1], the solubility in water result is “freely soluble”.
